According to PMC4508061, “Selectivity Profiling and Biological Activity of Novel β-Carbolines as Potent and Selective DYRK1 Kinase Inhibitors” (PLoS ONE, 2015):

Legend:
Test in all cases: ProQinase radiometric kinase panel
Conditions in all cases: mean of 2 exp.
VEGF-R1 = VEGF-R1 (Homo sapiens, UniProt P17948)
HIPK3 = HIPK3 (Homo sapiens, UniProt Q9H422)
EPHA8 = EPHA8 (Homo sapiens, UniProt P29322)
EPHA7 = EPHA7 (Homo sapiens, UniProt Q15375)
MEKK3 = MEKK3 (Homo sapiens, UniProt Q99759)
CDK2/CycE1 = CDK2/CycE1 (Homo sapiens, UniProt P24941)
MARK4 = MARK4 (Homo sapiens, UniProt Q96L34)
SRMS = SRMS (Homo sapiens, UniProt Q9H3Y6)
SRMS, sequence (Q9H3Y6 whole entry): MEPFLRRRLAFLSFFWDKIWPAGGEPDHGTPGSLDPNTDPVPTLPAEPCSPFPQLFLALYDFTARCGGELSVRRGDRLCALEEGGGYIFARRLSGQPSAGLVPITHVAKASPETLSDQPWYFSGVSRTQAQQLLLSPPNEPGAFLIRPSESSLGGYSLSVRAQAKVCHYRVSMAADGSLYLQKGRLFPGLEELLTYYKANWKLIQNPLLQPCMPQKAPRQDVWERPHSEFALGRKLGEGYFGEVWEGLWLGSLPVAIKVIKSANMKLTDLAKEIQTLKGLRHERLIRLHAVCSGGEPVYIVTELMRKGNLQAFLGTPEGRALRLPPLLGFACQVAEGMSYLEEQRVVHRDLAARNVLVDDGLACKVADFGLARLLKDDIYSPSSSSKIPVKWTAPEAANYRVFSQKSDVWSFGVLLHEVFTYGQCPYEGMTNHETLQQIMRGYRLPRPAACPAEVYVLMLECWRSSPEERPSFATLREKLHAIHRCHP

MEKK3, sequence (Q99759 whole entry): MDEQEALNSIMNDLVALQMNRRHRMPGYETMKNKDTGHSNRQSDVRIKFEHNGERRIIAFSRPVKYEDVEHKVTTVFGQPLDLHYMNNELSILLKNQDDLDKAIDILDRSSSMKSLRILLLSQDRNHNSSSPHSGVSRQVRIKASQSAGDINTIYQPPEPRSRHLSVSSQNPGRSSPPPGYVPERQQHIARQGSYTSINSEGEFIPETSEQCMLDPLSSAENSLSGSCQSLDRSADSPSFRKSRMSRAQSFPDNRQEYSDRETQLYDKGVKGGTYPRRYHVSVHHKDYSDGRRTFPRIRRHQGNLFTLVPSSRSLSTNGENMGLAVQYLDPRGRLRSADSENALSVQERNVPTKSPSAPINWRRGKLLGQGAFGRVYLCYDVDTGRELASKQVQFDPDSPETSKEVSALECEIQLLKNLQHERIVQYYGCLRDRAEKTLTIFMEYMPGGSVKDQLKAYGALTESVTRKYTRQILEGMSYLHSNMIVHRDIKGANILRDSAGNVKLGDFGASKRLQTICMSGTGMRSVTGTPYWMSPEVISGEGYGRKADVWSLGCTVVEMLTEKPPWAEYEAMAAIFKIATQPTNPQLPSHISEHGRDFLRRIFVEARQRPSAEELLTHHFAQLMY
VEGF-R1, sequence (P17948 27-1338): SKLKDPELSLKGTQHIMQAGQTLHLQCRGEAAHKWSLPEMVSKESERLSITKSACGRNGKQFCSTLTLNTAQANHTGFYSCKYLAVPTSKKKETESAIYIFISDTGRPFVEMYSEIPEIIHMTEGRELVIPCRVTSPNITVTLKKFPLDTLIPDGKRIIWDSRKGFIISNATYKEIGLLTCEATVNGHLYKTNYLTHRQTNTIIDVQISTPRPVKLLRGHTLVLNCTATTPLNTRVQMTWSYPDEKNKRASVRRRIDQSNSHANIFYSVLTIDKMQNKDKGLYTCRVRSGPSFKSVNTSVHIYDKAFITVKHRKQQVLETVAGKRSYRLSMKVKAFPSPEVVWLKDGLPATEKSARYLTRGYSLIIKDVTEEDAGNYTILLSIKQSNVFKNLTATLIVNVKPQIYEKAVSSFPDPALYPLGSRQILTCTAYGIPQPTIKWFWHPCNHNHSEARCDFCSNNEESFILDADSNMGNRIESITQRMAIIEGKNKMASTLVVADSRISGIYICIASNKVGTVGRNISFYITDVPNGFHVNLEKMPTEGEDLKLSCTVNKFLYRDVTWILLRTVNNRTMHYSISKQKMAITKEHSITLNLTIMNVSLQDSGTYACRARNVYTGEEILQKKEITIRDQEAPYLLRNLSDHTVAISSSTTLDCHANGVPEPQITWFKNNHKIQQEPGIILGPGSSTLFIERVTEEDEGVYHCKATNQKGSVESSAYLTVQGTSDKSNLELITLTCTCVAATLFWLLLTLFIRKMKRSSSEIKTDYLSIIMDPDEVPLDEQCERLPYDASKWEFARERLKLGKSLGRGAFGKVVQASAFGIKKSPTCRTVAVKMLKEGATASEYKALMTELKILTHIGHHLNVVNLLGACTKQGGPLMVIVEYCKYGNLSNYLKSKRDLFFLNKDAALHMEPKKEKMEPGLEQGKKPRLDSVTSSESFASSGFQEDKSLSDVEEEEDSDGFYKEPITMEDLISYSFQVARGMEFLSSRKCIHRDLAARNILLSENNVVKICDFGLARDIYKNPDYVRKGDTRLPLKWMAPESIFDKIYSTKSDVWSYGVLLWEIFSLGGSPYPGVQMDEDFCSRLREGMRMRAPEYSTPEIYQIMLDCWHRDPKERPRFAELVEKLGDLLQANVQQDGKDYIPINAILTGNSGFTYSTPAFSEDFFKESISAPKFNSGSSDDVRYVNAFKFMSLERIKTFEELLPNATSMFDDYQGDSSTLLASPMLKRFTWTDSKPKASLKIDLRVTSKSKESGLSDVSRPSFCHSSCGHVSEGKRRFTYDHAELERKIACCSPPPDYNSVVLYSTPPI
EPHA8, sequence (P29322 28-1005): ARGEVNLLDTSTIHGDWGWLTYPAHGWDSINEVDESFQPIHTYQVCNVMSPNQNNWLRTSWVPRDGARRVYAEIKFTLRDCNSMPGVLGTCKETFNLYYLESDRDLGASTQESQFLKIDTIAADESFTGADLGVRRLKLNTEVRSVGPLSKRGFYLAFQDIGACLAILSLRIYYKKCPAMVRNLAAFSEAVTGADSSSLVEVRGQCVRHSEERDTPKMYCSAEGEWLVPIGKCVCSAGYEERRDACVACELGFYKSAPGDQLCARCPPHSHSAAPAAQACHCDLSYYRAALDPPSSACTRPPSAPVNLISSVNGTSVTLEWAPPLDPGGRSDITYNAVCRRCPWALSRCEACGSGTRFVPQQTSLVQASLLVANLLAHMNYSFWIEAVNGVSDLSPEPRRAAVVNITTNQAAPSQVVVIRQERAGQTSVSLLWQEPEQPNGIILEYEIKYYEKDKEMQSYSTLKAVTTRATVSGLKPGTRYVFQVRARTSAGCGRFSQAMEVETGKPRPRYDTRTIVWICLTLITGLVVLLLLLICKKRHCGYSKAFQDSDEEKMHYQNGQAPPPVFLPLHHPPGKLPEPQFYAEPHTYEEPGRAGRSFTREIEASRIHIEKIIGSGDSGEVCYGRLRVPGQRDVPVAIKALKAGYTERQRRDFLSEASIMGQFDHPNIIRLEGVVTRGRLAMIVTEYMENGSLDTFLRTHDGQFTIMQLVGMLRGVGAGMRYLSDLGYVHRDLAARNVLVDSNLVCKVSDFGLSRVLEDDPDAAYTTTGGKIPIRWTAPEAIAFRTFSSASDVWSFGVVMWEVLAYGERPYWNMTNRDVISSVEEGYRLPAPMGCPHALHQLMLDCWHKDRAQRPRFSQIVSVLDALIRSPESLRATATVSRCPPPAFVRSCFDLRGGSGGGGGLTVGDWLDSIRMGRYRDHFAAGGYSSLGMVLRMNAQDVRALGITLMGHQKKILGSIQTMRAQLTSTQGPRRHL
HIPK3, sequence (Q9H422 whole entry): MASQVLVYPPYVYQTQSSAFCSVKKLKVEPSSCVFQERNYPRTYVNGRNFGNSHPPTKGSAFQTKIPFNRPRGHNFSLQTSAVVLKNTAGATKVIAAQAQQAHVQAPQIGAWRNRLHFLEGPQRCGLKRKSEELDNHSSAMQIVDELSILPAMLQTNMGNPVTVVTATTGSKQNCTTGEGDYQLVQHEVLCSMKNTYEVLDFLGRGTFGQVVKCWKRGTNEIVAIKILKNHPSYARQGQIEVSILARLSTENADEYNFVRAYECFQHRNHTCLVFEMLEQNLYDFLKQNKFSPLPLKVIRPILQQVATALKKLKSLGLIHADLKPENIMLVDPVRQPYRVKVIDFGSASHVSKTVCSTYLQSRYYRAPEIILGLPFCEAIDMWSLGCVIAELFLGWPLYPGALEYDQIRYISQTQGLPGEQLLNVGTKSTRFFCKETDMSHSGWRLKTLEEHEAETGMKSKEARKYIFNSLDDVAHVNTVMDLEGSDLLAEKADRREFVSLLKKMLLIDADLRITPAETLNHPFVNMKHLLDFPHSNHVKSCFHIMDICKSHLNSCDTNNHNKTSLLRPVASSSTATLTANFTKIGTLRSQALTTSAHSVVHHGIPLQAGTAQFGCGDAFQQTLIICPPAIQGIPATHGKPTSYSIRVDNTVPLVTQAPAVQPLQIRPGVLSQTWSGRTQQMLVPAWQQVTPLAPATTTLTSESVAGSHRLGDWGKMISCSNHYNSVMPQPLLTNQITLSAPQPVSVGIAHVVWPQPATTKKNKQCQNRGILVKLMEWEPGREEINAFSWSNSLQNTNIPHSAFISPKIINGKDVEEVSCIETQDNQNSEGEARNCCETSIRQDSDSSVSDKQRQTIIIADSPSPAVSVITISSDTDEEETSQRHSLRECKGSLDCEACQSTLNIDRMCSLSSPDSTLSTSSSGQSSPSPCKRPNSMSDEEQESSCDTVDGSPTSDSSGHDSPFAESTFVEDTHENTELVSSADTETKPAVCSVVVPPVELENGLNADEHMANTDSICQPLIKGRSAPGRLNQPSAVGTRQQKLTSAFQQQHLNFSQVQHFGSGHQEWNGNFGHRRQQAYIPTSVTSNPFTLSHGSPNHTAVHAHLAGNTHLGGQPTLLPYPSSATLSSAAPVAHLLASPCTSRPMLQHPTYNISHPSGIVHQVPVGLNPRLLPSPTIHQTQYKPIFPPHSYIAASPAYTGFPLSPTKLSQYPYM

residual activity at 1 µM, Mean (VEGF-R1): 89 % of control
residual activity at 1 µM, Mean (HIPK3): 88 % of control
residual activity at 1 µM, Mean (EPHA8): 89 % of control
residual activity at 1 µM, Mean (EPHA7): 107 % of control
residual activity at 1 µM, Mean (MEKK3): 97 % of control
residual activity at 1 µM, Mean (CDK2/CycE1): 97 % of control
residual activity at 1 µM, Mean (MARK4): 104 % of control
residual activity at 1 µM, Mean (SRMS): 92 % of control
Structure (SMILES): COc1ccc2c3ccnc(Cl)c3n(CC#N)c2c1 [AnnH75]
